Patent US20030186410A1, “Novel (r)-2-hydroxy-3-phenylpropionate (d-phenyllactate) dehydrogenase and gene encoding the same” (priority 2000, published 2003)

Tested on: D-PLDH
Assay: Relative enzyme activity of partially purified enzyme solution with different reaction substrates
Type: biochemical, Mycelia sterilia
Details: partially purified enzyme solution (Mono Q10/10) from pDPLDH-1-carrying E. coli, compound used as reaction substrate
Description: A 150 μl portion of buffer solution A containing 250 μM NADPH and 250 μM phenylpyruvic acid was dispensed into wells of a 96-well microtiter plate, 50 μl each of the crude enzyme solution was added and mixed immediately using a pipette, and a change in absorption at 340 nm at 26° C. was measured. The measurement was carried out using an Absorption Microassay Reader BioLumin 960 (Molecular Dynamics) to trace a decrease in absorption with time after the start of the reaction. The amount of the enzyme which oxidized 1 μmol of NADPH per minute was set to be one unit. Results are shown in Table 1 as the enzyme activity of the crude enzyme solution.
Further, the obtained crude enzyme solution was processed using Mono Q10/10 under the conditions described in Example 1-2 to prepare a partially purified enzyme solution. This partially purified enzyme solution was applied onto a 96-well microtiter with different concentrations of the substrate, phenylpyruvic acid, to measure enzyme activity. Further, enzyme activity was also measured with an alternative substrate, pyruvic acid, in place of phenylpyruvic acid. […]

Structure (SMILES)	Relative reaction rate (rate with phenylypyruvic acid = 100)
O=C(O)C(=O)Cc1ccccc1 [Phenylpyruvic acid, 2-oxo-3-phenylpropionic acid]	100
CC(=O)C(=O)O [Pyruvic acid]	10
